Article PMC6149722, “Comparison of the Binding of Reversible Inhibitors to Human Butyrylcholinesterase and Acetylcholinesterase: A Crystallographic, Kinetic and Calorimetric Study” (Molecules : A Journal of Synthetic Chemistry and Natural …, 2017)
Where a name gives a salt, the structure may show the parent alone. Read-outs that look alike come from different tables or passages of the source.

Legend:
BChE [1] = target: T1, BChE (Homo sapiens, UniProt P06276); parameters: method as in PMID 22901043; conditions: cited from earlier work
T1 construct: Purified human plasma wild-type BChE was a gift from Dr. Oksana Lockridge; tissue gift from Dr. Oksana Lockridge (University of Nebraska Medical Center); host or cells: human plasma

AChE [2] = conditions: cited from earlier work
hBChE [3] = assay: biochemical; type: binding; conditions: ITC KD, hAChE vs hBChE
hBChE [4] = target: hBChE (Homo sapiens, UniProt P06276, N45Q/N483Q/N509Q/N514Q); assay: biochemical; type: binding; conditions: for n (±SD), binding stoichiometry / ΔG (±SD), Gibbs free energy of binding / ΔH (±SD), binding heat: hBChE, ITC, 25 °C, pH 7.4
BChE [5] = target: T1, BChE; conditions: in the presence of thioflavin T; cited from earlier work
hAChE [6] = target: T2, hAChE (Homo sapiens, UniProt P22303); assay: biochemical; type: binding; conditions: for n (±SD), binding stoichiometry / ΔG (±SD), Gibbs free energy of binding / ΔH (±SD), binding heat: hAChE, ITC, 25 °C, pH 8.0
AChE [7] = conditions: cited from earlier work; remark: listed apart in the source
BChE [8] = conditions: cited from earlier work
BChE [9] = target: T1, BChE; assay: Inhibition of second-order substrate hydrolysis by BChE (inhibition constants KI); type: biochemical
Experimental: To further compare the binding sites of inhibitors with AChE and BChE, we employed an inhibitor competition assay. This assay is designed to detect any ternary complex formed when two inhibitors are added to AChE or BChE simultaneously. The assay is conducted with a substrate like acetylthiocholine whose second-order hydrolysis at low substrate concentrations is diffusion controlled and thus is inhibited by ligands that bind to either the A-site or the P-site (see Figure 7A below). Individual inhibition constants KI were obtained by plotting the ratios of the hydrolysis rate constant kE at various concentrations of one inhibitor (kE + I) to kE in the absence of inhibitor (kE [I] = 0) against inhibitor concentration. Inhibitor competition was then assessed by determining ratios of kE at a fixed concentration ([I1]) of inhibitor 1 and various concentrations ([I2]) of inhibitor 2 (kE + I2) to kE at the same [I1] in the absence of [I2] (kE [I2] = 0) and plotting these ratios against [I2]. These plots were analyzed with Equation (5) (described in the Materials and Methods Section 4.4) to obtain the relative affinity of I1 in its binary complex with enzyme E to I1 in a ternary complex with I2 and E (K12/K1). […].
For enzyme kinetics experiments, purified recombinant hAChE (~1500 units as determined by the supplier) was purchased from Sigma Aldrich (St. Louis, MO, USA). The AChE concentration was calculated using the assumption of 450 units/nmol (4.8 ∆A412/(min × nM)). Purified human plasma wild-type BChE was a gift from Dr. Oksana Lockridge (University of Nebraska Medical Center, Omaha, NE, USA). BChE concentration was calculated assuming 62.5 unit/nmol (0.94 ∆A412/(min × nM)). As defined previously, […] is the amount of BChE that gives 1.0 ∆A/min in the presence of 1.6 × 10^−4 M butyrylthiocholine in a 1.5 mL assay.
Inhibition constants for inhibitors of BChE were determined using a modification of a previously described method. Briefly, varying amounts of inhibitor (in 50 μL of 50% CH3CN(aq)) were added to 1.60 mL of buffer (0.09 M phosphate buffer, pH 8.0), 5,5′-dithio-bis (2-nitrobenzoic acid) (0.32 mM), and butyrylthiocholine substrate (5 μM) in a quartz cuvette of 1 cm path length, and the mixture was zeroed at 412 nm. The reaction was initiated by the addition of 50 μL of BChE (to 0.68 nM) in 0.1% aqueous gelatin. Assays were conducted at 23 °C. The absorbance (A), reflecting the cumulative hydrolysis of the substrate, was recorded every 5–20 s using an Ultraspec 2100 pro ultra violet (UV)-visible spectrophotometer (Fisher Scientific, Toronto, ON, Canada) equipped with Swift II application software. […]
In Equation (1), A412 is absorbance, [E]tot is the total enzyme concentration, kobs = kE[E]tot, and ΔA412 = A412(final) − A412(t = 0). […]

BChE [10] = target: T1, BChE; type: biochemical; conditions: binding site competition ratio of each inhibitor (I1) in the presence of decamethonium (I2), >> 1 denotes competition at the same site
Experimental: This assay is designed to detect any ternary complex formed when two inhibitors are added to AChE or BChE simultaneously [15, 23, 34, 41, 42, 43]. The assay is conducted with a substrate like acetylthiocholine whose second-order hydrolysis at low substrate concentrations is diffusion controlled and thus is inhibited by ligands that bind to either the A-site or the P-site [15] […] Inhibitor competition was then assessed by determining ratios of kE at a fixed concentration ([I1]) of inhibitor 1 and various concentrations ([I2]) of inhibitor 2 (kE + I2) to kE at the same [I1] in the absence of [I2] (kE [I2] = 0) and plotting these ratios against [I2]. These plots were analyzed with Equation (5) (described in the Materials and Methods Section 4.4) to obtain the relative affinity of I1 in its binary complex with enzyme E to I1 in a ternary complex with I2 and E (K12/K1).
Determining rates of substrate hydrolysis in the presence of two inhibitors provides information that indicates whether these inhibitors are interacting with the same or different enzyme binding sites [15]. […]
In this equation, K1, K2, and K12 are the equilibrium dissociation constants for I1 with E, I2 with E, and I1 with the E I2 complex, respectively. Individual inhibition constants (e.g., K2) could be determined from Equation (5) with [I1] fixed at 0. […]

hAChE [11] = target: T2, hAChE; conditions: read-out: AChE KI, recalculated from data obtained in ref 23; cited from earlier work
hBChE [12] = conditions: specificity for BChE; cited from earlier work

Sequence of hBChE (Homo sapiens, UniProt P06276, N45Q/N483Q/N509Q/N514Q) (P06276 29-557 N45Q/N483Q/N509Q/N514Q): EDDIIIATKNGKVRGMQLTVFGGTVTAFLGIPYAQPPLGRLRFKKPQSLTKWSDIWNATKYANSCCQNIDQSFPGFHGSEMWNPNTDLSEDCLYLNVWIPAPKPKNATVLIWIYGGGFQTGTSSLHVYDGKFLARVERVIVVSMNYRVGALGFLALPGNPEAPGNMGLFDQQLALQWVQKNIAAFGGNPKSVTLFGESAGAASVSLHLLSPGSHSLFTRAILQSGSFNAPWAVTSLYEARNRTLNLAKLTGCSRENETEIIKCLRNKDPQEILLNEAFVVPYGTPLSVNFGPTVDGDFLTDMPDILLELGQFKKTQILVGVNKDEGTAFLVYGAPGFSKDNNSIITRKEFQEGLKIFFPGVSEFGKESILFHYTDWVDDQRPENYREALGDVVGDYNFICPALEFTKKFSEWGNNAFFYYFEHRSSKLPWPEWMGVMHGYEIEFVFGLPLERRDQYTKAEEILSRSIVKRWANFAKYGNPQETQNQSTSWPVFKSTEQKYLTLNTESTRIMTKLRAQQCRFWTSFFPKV
T1 sequence (P06276 29-602): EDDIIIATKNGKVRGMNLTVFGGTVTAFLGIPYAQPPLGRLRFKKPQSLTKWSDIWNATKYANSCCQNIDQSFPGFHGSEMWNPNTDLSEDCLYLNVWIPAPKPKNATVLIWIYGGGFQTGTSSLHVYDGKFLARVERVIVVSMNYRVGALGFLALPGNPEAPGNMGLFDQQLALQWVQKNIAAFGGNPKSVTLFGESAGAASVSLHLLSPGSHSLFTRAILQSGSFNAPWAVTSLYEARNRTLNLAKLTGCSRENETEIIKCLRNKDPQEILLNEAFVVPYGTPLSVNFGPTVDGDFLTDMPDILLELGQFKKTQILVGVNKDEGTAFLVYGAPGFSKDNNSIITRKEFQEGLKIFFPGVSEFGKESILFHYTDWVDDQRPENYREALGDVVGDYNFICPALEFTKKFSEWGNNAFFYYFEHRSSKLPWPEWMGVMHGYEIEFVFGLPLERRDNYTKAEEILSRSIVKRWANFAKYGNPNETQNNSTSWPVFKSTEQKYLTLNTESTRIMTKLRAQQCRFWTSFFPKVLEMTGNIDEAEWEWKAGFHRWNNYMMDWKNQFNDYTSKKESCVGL
T2 sequence (P22303 32-574): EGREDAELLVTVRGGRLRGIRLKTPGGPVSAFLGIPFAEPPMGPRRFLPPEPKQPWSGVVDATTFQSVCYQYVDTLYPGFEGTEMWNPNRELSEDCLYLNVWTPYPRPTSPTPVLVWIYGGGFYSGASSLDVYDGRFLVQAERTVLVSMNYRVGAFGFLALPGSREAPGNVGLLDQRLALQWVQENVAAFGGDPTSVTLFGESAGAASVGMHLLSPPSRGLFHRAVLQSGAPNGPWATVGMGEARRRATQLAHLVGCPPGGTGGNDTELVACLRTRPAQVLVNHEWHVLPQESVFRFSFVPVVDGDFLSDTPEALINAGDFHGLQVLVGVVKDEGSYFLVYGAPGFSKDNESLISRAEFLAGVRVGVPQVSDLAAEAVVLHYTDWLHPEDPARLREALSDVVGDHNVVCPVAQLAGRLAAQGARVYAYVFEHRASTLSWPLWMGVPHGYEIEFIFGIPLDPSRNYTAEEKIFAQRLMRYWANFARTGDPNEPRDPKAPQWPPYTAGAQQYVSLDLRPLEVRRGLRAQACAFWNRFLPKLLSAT

For CC[N+](C)(C)c1cccc(O)c1 [Edrophonium, edrophonium chloride], the Ki (BChE [1]; BChE, updated from data in ref 23) is given as 49 ± 3 µM, the Ki (BChE [1]; read-out: BChE KI, hBChE, recalculated from data obtained in ref 23) is given as 49 ± 3 µM and the “AChE K12/K1” value (AChE [2]; binding site competition ratio in the presence of thioflavin T, recalculated from data obtained in ref 23) is given as 2.9 ± 0.2. The “AChE K12/K1 competition class” value (AChE [2]; in the presence of thioflavin T) was “NC (A K12/K1 ratio of ~1 indicates no competition at binding sites (NC))”, the “difference in KD values between AChE and BChE” value (hBChE [3]) was ~20 fold and the Kd (hBChE [4]) was 27.2 ± 2.4 µM. The “n (±SD), binding stoichiometry” value (hBChE [4]) was 0.9 ± 0.1, the “ΔG (±SD), Gibbs free energy of binding” value (hBChE [4]) was -6.24 ± 0.072 kcal/mol and the “ΔH (±SD), binding heat” value (hBChE [4]) was -3.01 ± 0.406 kcal/mol. The “n (±SD), binding stoichiometry” value (hBChE [4]; listed as edrophonium) was ~ 1, the “BChE K12/K1 competition class” value (BChE [5]) was “PC (intermediate ratios indicate partial competition (PC))” and the “n (±SD), binding stoichiometry” value (hAChE [6]) was 0.8 ± 0.3. The “ΔG (±SD), Gibbs free energy of binding” value (hAChE [6]) was -8.03 ± 0.19 kcal/mol, the “ΔH (±SD), binding heat” value (hAChE [6]) was -6.31 ± 1.89 kcal/mol and the “n (±SD), binding stoichiometry” value (hAChE [6]; listed as edrophonium) was ~ 1.
In the case of Nc1c2c(nc3cc(Cl)ccc13)C[C@H]1C=C(CCO)C[C@@H]2C1 [huprine W], the IC50 (AChE [7]) is listed as 0.0011 µM and the IC50 (BChE [8]) is listed as 1.2 µM.
With Cc1ccc2c(c1)sc(-c1ccc(N(C)C)cc1)[n+]2C [Thioflavin-T, ThT chloride] the Ki (BChE [9]; BChE 0.68 nM, butyrylthiocholine 5 µM, second-order dependence on inhibitor concentration, read-out: KI (fitted with Equation (4))) was 1.61 ± 0.11 µM, the “KII (fitted with Equation (4))” value (BChE [9]; BChE 0.68 nM, butyrylthiocholine 5 µM, second-order term) was 5.84 ± 0.16 µM^2 and the “KI12/KI1 (maximum for the affinity in the binary complex relative to that in the ternary complex)” value (BChE [9]; BChE, two molecules of inhibitor, maximum reached when KI1 = KI2) was 0.56 ± 0.04. For the same molecule, the K12/K1 (BChE [10]) was >200, the “difference in KD values between AChE and BChE” value (hBChE [3]) was “about 7 fold” and the Kd (hBChE [4]) was 2.6 ± 0.5 µM. The “n (±SD), binding stoichiometry” value (hBChE [4]) was 2.2 ± 0.1, the “ΔG (±SD), Gibbs free energy of binding” value (hBChE [4]) was -7.65 ± 0.14 kcal/mol and the “ΔH (±SD), binding heat” value (hBChE [4]) was -2.72 ± 0.14 kcal/mol. For the same molecule, the Kd (hAChE [6]) was 17.7 µM, the “n (±SD), binding stoichiometry” value (hAChE [6]) was 1 and the “ΔG (±SD), Gibbs free energy of binding” value (hAChE [6]) was -6.5 kcal/mol. The “ΔH (±SD), binding heat” value (hAChE [6]) was -5.66 kcal/mol, the “n (±SD), binding stoichiometry” value (hAChE [6]; listed as ThT) was ~ 1 and the Ki (hAChE [11]) was 3.9 ± 0.4 µM.
Molecule C[N+](C)(C)CCCCCCCCCC[N+](C)(C)C [Decamethonium, decamethonium bromide] has a Ki (BChE [9]) of 4.5 ± 0.2 µM.
In the case of NCCC1=CC2Cc3nc4cc(Cl)ccc4c(N)c3C(C1)C2 (centres unmarked) [huprine 19], the IC50 (BChE [8]) is listed as 0.9 µM.
For CCN(CC)C(C)CN1c2ccccc2Sc2ccccc21 (centres unmarked) [Ethopropazine, ethopropazine hydrochloride], the “difference in KD values between AChE and BChE” value (hBChE [3]) was ~20 fold, the Kd (hBChE [4]) was 1.1 ± 0.1 µM and the “n (±SD), binding stoichiometry” value (hBChE [4]) was 1.0 ± 0.1. For the same molecule, the “ΔG (±SD), Gibbs free energy of binding” value (hBChE [4]) was -8.15 ± 0.048 kcal/mol, the “ΔH (±SD), binding heat” value (hBChE [4]) was -10.4 ± 1.53 kcal/mol and the “n (±SD), binding stoichiometry” value (hBChE [4]; listed as ethopropazine) was ~ 1. The “difference in Ki between hAChE and hBChE” value (hBChE [12]) was 9000 fold.
